{"source": "paper doi:10.1101/2020.10.11.335026v1", "about": "“Acquisition of a type 3 secretion signal in an housekeeping enzyme shaped glycogen metabolism in Chlamydia” (biorxiv, 2020)", "assay_type_in_all_cases": "biochemical", "key": {"[1]": {"target": "T1, CpsG (HIS-CpsG) (Escherichia coli, UniProt P24175)", "T1 construct": "gene manB; His-tagged, recombinant from E. coli BL21(DE3), Ni-NTA and size exclusion; tag terminus printed as C-terminal in Methods", "T1 sequence (P24175 1-456)": "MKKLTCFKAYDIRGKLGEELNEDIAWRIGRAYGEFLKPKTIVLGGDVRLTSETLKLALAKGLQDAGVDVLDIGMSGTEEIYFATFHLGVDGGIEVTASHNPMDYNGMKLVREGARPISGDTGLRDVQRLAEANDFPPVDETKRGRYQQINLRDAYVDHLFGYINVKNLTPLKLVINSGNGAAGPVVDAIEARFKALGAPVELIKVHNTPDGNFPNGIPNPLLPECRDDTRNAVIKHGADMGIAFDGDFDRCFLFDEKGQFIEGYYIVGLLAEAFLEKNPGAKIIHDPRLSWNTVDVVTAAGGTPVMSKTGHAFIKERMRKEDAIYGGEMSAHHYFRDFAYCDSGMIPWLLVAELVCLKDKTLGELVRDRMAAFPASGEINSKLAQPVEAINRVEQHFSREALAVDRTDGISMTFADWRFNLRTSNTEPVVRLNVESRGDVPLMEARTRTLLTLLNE", "assay": "Glc1P conversion with and without cofactor by HPAEC-PAD", "conditions": "0.2 mg/mL Glc1,6diP, 0.66 mg/ml Glc1P, 10 mM Tris-HCl pH 8.0, 37 °C, 20 min"}, "[2]": {"target": "T2, CT815 (HIS-CT815) (Chlamydia trachomatis, UniProt B0B944)", "T2 construct": "gene glmM; His-tagged, in pET28a, recombinant from E. coli BL21(DE3), Ni-NTA and size exclusion; tag printed as amino-terminal in Results but C-terminal in Methods", "T2 sequence (B0B944 whole entry)": "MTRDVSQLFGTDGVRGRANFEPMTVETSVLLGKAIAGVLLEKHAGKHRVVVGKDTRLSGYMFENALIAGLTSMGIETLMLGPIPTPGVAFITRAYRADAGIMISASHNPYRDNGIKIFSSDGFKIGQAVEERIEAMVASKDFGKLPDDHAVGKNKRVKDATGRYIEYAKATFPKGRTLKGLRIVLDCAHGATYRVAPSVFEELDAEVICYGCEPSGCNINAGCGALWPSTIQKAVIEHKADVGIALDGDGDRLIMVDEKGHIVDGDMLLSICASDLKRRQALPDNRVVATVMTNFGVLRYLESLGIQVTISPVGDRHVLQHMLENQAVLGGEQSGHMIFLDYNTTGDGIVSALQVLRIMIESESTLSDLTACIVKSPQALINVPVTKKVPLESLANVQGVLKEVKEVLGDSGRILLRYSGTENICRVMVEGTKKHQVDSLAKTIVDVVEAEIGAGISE", "assay": "conversion to Glc6P by HPAEC-PAD", "conditions": "0.66 mg/ml Glc1P, 0.1 mg/mL enzyme, 0.2 mg/mL Glc1,6diP, 10 mM Tris-HCl pH 8.0, 37 °C, 20 min"}, "[3]": {"target": "T1, CpsG (HIS-CpsG)", "assay": "conversion to Glc6P by HPAEC-PAD", "conditions": "0.66 mg/ml Glc1P, 0.1 mg/mL enzyme, 0.2 mg/mL Glc1,6diP, 10 mM Tris-HCl pH 8.0, 37 °C, 20 min"}, "[4]": {"target": "T3, CCA00034 (HIS-CCA00034) (Chlamydia caviae, UniProt Q823R2)", "T3 construct": "gene CCA_00344; His-tagged, recombinant from E. coli BL21(DE3), Ni-NTA and size exclusion; tag printed as amino-terminal in Results but C-terminal in Methods; tag not reported cut", "T3 sequence (Q823R2 entry or part of it)": "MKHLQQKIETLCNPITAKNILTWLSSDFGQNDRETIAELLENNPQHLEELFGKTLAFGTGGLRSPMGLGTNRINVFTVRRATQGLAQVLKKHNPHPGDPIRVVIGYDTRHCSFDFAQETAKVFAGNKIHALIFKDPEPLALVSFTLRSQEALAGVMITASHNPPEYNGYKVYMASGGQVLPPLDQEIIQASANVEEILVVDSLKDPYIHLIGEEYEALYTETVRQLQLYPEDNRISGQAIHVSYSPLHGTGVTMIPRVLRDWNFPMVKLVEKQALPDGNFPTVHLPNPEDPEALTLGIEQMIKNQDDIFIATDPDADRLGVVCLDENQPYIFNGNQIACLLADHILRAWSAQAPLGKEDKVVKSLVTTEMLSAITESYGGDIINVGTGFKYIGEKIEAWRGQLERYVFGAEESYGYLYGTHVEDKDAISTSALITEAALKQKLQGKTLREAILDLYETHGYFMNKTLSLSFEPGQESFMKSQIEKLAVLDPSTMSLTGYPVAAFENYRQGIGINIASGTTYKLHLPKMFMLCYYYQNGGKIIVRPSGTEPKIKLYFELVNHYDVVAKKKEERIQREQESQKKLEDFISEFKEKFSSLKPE", "assay": "conversion to Glc6P by HPAEC-PAD", "conditions": "0.66 mg/ml Glc1P, 0.1 mg/mL enzyme, 0.2 mg/mL Glc1,6diP (not required), 10 mM Tris-HCl pH 8.0, 37 °C, 20 min"}, "[5]": {"target": "T3, CCA00034 (HIS-CCA00034)", "assay": "reverse reaction to Glc1P by HPAEC-PAD", "conditions": "0.33 mg/ml Glc6P, 0.1 mg/mL enzyme, 0.2 mg/mL Glc1,6diP, 10 mM Tris-HCl pH 8.0, 37 °C, 20 min"}}, "data": [{"smiles": "O=P(O)(O)OC[C@H]1O[C@H](OP(=O)(O)O)[C@H](O)[C@@H](O)[C@@H]1O", "note": "[Glc1,6diP]", "values": [{"measurement": "Glc1P conversion with and without cofactor by HPAEC-PAD", "setting": "[1]", "value": "CpsG required the presence of Glc1,6diP for optimal conversion of Glc1P into Glc6P"}]}, {"smiles": "O=P(O)(O)O[C@H]1O[C@H](CO)[C@@H](O)[C@H](O)[C@H]1O", "note": "[Glc1P]", "values": [{"measurement": "conversion to Glc6P by HPAEC-PAD", "setting": "[2]", "value": "only low levels of Glc6P were detected in the presence of HIS-CT815"}, {"measurement": "conversion to Glc6P by HPAEC-PAD", "setting": "[3]", "value": "HIS-CpsG required the presence of Glc1,6diP to convert Glc1P into Glc6P"}, {"measurement": "conversion to Glc6P by HPAEC-PAD", "setting": "[4]", "value": "Incubation of Glc1P in the presence of HIS-CCA00034 led to its full conversion into Glc6P"}]}, {"smiles": "O=P(O)(O)OC[C@H]1OC(O)[C@H](O)[C@@H](O)[C@@H]1O", "note": "(some centres unmarked) [Glc6P]", "values": [{"measurement": "reverse reaction to Glc1P by HPAEC-PAD", "setting": "[5]", "value": "very low amounts of Glc1P were detected after incubation with HIS-CCA00034 or HIS-CpsG"}]}]}
